Data published in patent publication US20110053897A1 (IRM LLC, priority 2009, published 2011).
pIC50: −log10 of the molar value.

molecular target: T1, Syk kinase (Homo sapiens, UniProt P43405); assay: Syk kinase inhibition, Caliper LabChip off-chip mobility-shift kinase assay; assay type: biochemical; conditions: Caliper LabChip assay; read-out: Syk Enzyme IC50
T1 construct: purchased
Outline: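 Purified Syk pre-incubated 15 min with compound in 100 mM HEPES pH 7.5, 1 mM DTT, 10 mM MgCl2 or MnCl2, 0.002% Brij-35, then 1.5 μM fluorescein peptide and ATP at apparent KM added; 1–1.5 h at room temperature, 4% DMSO, EDTA stop. Microfluidic mobility-shift product/substrate conversion gave % inhibition; IC50 from 12-point series (10–0.00003 μM) by 4-parameter fit.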

pIC50 | Structure (SMILES)
6.73 | Cc1ccnc(Nc2cc3ccn(CCO)c(=O)c3c(Nc3ccc(C(=O)N4CCOCC4)c(C)c3)n2)c1 [compound 650]
7.28 | CCn1ccc2cc(Nc3cc(C)ccn3)nc(NC3CCC(C)(O)CC3)c2c1=O (stereo not drawn) [compound 950]
6.58 | CCn1ccc2cc(Nc3cnccn3)nc(Nc3ccc(C(=O)N4CCC(O)C4)cc3)c2c1=O (stereo not drawn) [compound 833]
5.66 | CCOC(=O)c1cnn(-c2cc(Nc3cc4ccn(CCO)c(=O)c4c(NC(C)(C)C)n3)ncn2)c1 [compound 889]
7.07 | CCn1ccc2cc(Nc3cc(C(C)(C)O)ccn3)nc(NC3(CO)CCC3)c2c1=O [compound 703]

More lines, now with the values behind:

Structure (SMILES) | pIC50
CC(C)(C)Nc1nc(Nc2cnccn2)cc2ccn(C[C@@H](O)CO)c(=O)c12 [compound 668, (R)-8-(tert-butylamino)-2-(2,3-dihydroxypropyl)-6-(pyrazin-2-ylamino)-2,7-naphthyridin-1(2H)-one] | 8.15
CC(C)(C)Nc1nc(Nc2cc(C(C)(C)O)ncn2)cc2ccn(C3COC3)c(=O)c12 [compound 734] | 7.24
CCn1ccc2cc(Nc3cc(C)ccn3)nc(N[C@@H]3CC[C@@H](O)C3)c2c1=O [compound 1040] | 7.08
COCCNC(=O)c1ccc(Nc2nc(Nc3cc(C)ccn3)cc3ccn(C)c(=O)c23)cc1 [compound 652] | 6.18
COCCn1ccc2cc(Nc3cnccn3)nc(N[C@H]3CC[C@@H](O)CC3)c2c1=O [compound 1005] | 7.77
CC1(Cn2ccc3cc(Nc4cnccn4)nc(NC4CCC4)c3c2=O)COC1 [compound 755] | 8.05
CC(C)(C)Nc1nc(-c2cnc(N)nc2)cc2ccn(CC3CCOCC3)c(=O)c12 [compound 919] | 7.09
CC(C)(C)Nc1nc(Nc2cnccn2)cc2ccn(CC(=O)N3CCOCC3)c(=O)c12 [compound 1008] | 6.62
CCn1ccc2cc(Nc3nccc(O)n3)nc(N[C@H]3CCC[C@H]3O)c2c1=O [compound 957] | 7.82
CC(C)(C)Nc1nc(Nc2cc(C(C)(C)N)ccn2)cc2ccn(CCO)c(=O)c12 [compound 711, 6-(4-(2-aminopropan-2-yl)pyridin-2-ylamino)-8-(tert-butylamino)-2-(2-hydroxyethyl)-2,7-naphthyridin-1(2H)-one] | 6.71
Cn1ccc2cc(Nc3nccc(O)n3)nc(Nc3ccc(C(=O)N4CCOCC4)cc3)c2c1=O [compound 805] | 6.12
CC(O)c1ccnc(Nc2cc3ccn(CCO)c(=O)c3c(NC(C)(C)C)n2)c1 (stereo not drawn) [compound 700] | 7.92
CC(C)(C)Nc1nc(Nc2cc(-c3ccncc3)ccn2)cc2ccn(CCO)c(=O)c12 [compound 842] | 7.29
CCn1ccc2cc(Nc3cc(C)ccn3)nc(N[C@@H]3CCC[C@H]3O)c2c1=O [compound 939] | 5.98
CC(C)(C)Nc1nc(Nc2cc(CCCCO)ncn2)cc2ccn(CCO)c(=O)c12 [compound 629] | 7.21

same assay, conditions: read-out: Syk Enzyme IC50

pIC50 | Structure (SMILES)
6.54 | COc1cncc(-c2cc3cc[nH]c(=O)c3c(Nc3ccc(C4CCN(C5COC5)CC4)c(C)c3)n2)n1 [compound 164]
6.74 | COc1cncc(-c2cc3cc[nH]c(=O)c3c(Nc3ccc(C4CCN(C(C)C(=O)NC5CC5)CC4)c(C)c3)n2)n1 (stereo not drawn) [compound 121]
7.74 | CCn1ccc2cc(Nc3cnccn3)nc(N[C@H]3CCC[C@H]3O)c2c1=O (racemic) [compound 354]
7.19 | COc1cncc(-c2cc3cc[nH]c(=O)c3c(Nc3ccc(CCN4CCNCC4)cc3)n2)n1 [compound 54]
7.04 | COc1cncc(-c2cc3cc[nH]c(=O)c3c(Nc3ccc(C4CCN(C(C)=O)CC4)c(C)c3)n2)n1 [compound 144]
6.74 | COC(=O)C(C)N1CCC(c2ccc(Nc3nc(-c4cncc(OC)n4)cc4cc[nH]c(=O)c34)cc2C)CC1 (stereo not drawn) [compound 116]
7.34 | [2H]C([2H])([2H])n1ccc2cc(Nc3cc(C)ccn3)nc(N[C@@H](C)CO)c2c1=O [compound 398]
7.64 | CCNC(=O)C(C)N1CCC(c2ccc(Nc3nc(-c4cncc(OC)n4)cc4cc[nH]c(=O)c34)cc2C)CC1 (stereo not drawn) [compound 120]

Second part, the compound before the results:

Structure (SMILES) | pIC50
CCNC(=O)c1ccc(Nc2nc(Nc3cc(Cl)ccn3)cc3ccn(C)c(=O)c23)cc1 [compound 382] | 6.44
CC(=O)N1CCC(c2ccc(Nc3nc(Nc4cc(C)ccn4)cc4ccn(C)c(=O)c34)cc2)CC1 [compound 310] | 6.12
Cc1ccc(-c2cc3cc[nH]c(=O)c3c(Nc3ccc(CCN4CCNC(=O)C4)cc3)n2)cn1 [compound 152] | 6.93
Cc1ccnc(Nc2cc3ccn(C)c(=O)c3c(NC(C)(C)C)n2)c1 [compound 506] | 6.89
CCN1CCN(C2CCC(c3ccc(Nc4nc(-c5cncnc5)cc5cc[nH]c(=O)c45)cc3)CC2)CC1 (stereo not drawn) [compound 108] | 6.94
CCCc1cc2cc[nH]c(=O)c2c(Nc2ccc(N3CCO[C@H](C)C3)c(C)c2)n1 [compound 225] | 5.64
CCCNC(=O)c1ccc(Nc2cc3ccn(C)c(=O)c3c(N)n2)nc1 [compound 575] | 5.58
Cc1cc(Nc2nc(Nc3cc(C(F)(F)F)ccn3)cc3cc[nH]c(=O)c23)ccc1C1CCN(C2CC2)CC1 [compound 255] | 6.36
CCN1CCN(CCCc2ccc(Nc3nc(-c4cncc(OC)n4)cc4cc[nH]c(=O)c34)cc2)CC1 [compound 41] | 7.38

molecular target: T1, Syk kinase; assay: Selectivity for Syk kinase over other kinases, receptors, enzymes and transporters; assay type: biochemical; conditions: qualitative statement, values not given

selectivity for Syk kinase over other kinases, as well as other receptors, enzymes and transporters | Structure (SMILES)
improved Syk selectivity | CC(C)(C)Nc1nc(Nc2cc(C(C)(C)O)ncn2)cc2ccn(C3COC3)c(=O)c12 [compound 734]

system: not listed separately; assay: Pharmacokinetic parameters (bioavailability, metabolic stability, half life, compound exposure); conditions: qualitative statement, values not given

pharmacokinetic parameters, such as bioavailablity, enhanced metabolic stability, half life and compound exposure | Structure (SMILES)
improved pharmacokinetic parameters | CC(C)(C)Nc1nc(Nc2cnccn2)cc2ccn(C[C@@H](O)CO)c(=O)c12 [compound 668, (R)-8-(tert-butylamino)-2-(2,3-dihydroxypropyl)-6-(pyrazin-2-ylamino)-2,7-naphthyridin-1(2H)-one]
